PubChem BioAssay AID1963959 (Molecular Pharmacology Branch, DTP, NCI, 2024)

Tested on: T-47D spheroids with HUVEC/MSC, viability
Assay: Anticancer human tumor T-47D cell line growth inhibition [PI3K];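 also: spheroids exposed to agents for seven days before reading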;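 as to viability, T/C: percent of DMSO vehicle control luminescence so 100% = untreated growth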
Settings: for IC50: curve of first compound; for viability, T/C: stronger effect = lower value; active = viability on the fitted dose curve at most 10% of control; inactive = the rest
Method in brief: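 Viability of mixed-cell spheroids was determined after exposure to pairwise combinations, one partner being inavolisib, alpelisib, duvelisib or copanlisib. Highest tested concentration matched clinical Cmax where known and 10 microM where not, descending in half-log steps.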

[1] = second compound 0.0316 µM, first compound 0.00316 µM
[2] = second compound 0.0316 µM, first compound 0.01 µM
[3] = second compound 0.0316 µM, first compound 0.0316 µM
[4] = second compound 0.0316 µM, first compound 0.1 µM
[5] = second compound 0.0316 µM, first compound 0.316 µM
[6] = second compound 0.0316 µM, first compound 1 µM
[7] = second compound 0.1 µM, first compound 0.00316 µM
[8] = second compound 0.1 µM, first compound 0.01 µM
[9] = second compound 0.1 µM, first compound 0.0316 µM
[10] = second compound 0.1 µM, first compound 0.1 µM
[11] = second compound 0.1 µM, first compound 0.316 µM
[12] = second compound 0.1 µM, first compound 1 µM
[13] = second compound 0.316 µM, first compound 0.00316 µM
[14] = second compound 0.316 µM, first compound 0.01 µM
[15] = second compound 0.316 µM, first compound 0.0316 µM
[16] = second compound 0.316 µM, first compound 0.1 µM
[17] = second compound 0.316 µM, first compound 0.316 µM
[18] = second compound 0.316 µM, first compound 1 µM
[19] = second compound 1 µM, first compound 0.00316 µM
[20] = second compound 1 µM, first compound 0.01 µM
[21] = second compound 1 µM, first compound 0.0316 µM
[22] = second compound 1 µM, first compound 0.1 µM
[23] = second compound 1 µM, first compound 0.316 µM
[24] = second compound 1 µM, first compound 1 µM
[25] = second compound 3.16 µM, first compound 0.00316 µM
[26] = second compound 3.16 µM, first compound 0.01 µM
[27] = second compound 3.16 µM, first compound 0.0316 µM
[28] = second compound 3.16 µM, first compound 0.1 µM
[29] = second compound 3.16 µM, first compound 0.316 µM
[30] = second compound 3.16 µM, first compound 1 µM
[31] = second compound 10 µM, first compound 0.00316 µM
[32] = second compound 10 µM, first compound 0.01 µM
[33] = second compound 10 µM, first compound 0.0316 µM
[34] = second compound 10 µM, first compound 0.1 µM
[35] = second compound 10 µM, first compound 0.316 µM
[36] = second compound 10 µM, first compound 1 µM

CCN1CCN(Cc2ccc(Nc3ncc(F)c(-c4cc(F)c5nc(C)n(C(C)C)c5c4)n3)nc2)CC1 + Cc1nc(NC(=O)N2CCCC2C(N)=O)sc1-c1ccnc(C(C)(C)C(F)(F)F)c1
8.56 nM: IC50 (second compound 3.16 µM)
inactive: viability, T/C [1] 111% | viability, T/C [2] 87.8% | viability, T/C [3] 89% | viability, T/C [4] 85% | viability, T/C [5] 80.9% | viability, T/C [6] 92.7% | viability, T/C [7] 100% | viability, T/C [8] 73.7% | viability, T/C [9] 82.1% | viability, T/C [10] 72.3% | viability, T/C [11] 80.7% | viability, T/C [12] 85.2% | viability, T/C [13] 96% | viability, T/C [14] 73.4% | viability, T/C [15] 70.2% | viability, T/C [16] 67% | viability, T/C [17] 64.4% | viability, T/C [18] 73.2% | viability, T/C [19] 78.9% | viability, T/C [20] 64.5% | viability, T/C [21] 55.9% | viability, T/C [22] 51.9% | viability, T/C [23] 58.9% | viability, T/C [24] 70.3% | viability, T/C [25] 61.2% | viability, T/C [26] 49.2% | viability, T/C [27] 44.2% | viability, T/C [28] 39.3% | viability, T/C [29] 47.1% | viability, T/C [30] 53.2% | viability, T/C [31] 30.5% | viability, T/C [32] 26% | viability, T/C [33] 24.5% | viability, T/C [34] 27.2% | viability, T/C [35] 33.1% | viability, T/C [36] 38.6%
> 1000 nM: IC50 (second compound 0.0316 µM) | IC50 (second compound 0.1 µM) | IC50 (second compound 0.316 µM) | IC50 (second compound 1 µM)
< 3.16 nM: IC50 (second compound 10 µM)

CCN1CCN(Cc2ccc(Nc3ncc(F)c(-c4cc(F)c5nc(C)n(C(C)C)c5c4)n3)nc2)CC1 + CC(Nc1ncnc2nc[nH]c12)c1cc2cccc(Cl)c2c(=O)n1-c1ccccc1
inactive: viability, T/C [1] 107% | viability, T/C [2] 97.2% | viability, T/C [3] 91.7% | viability, T/C [4] 74.7% | viability, T/C [5] 95.7% | viability, T/C [6] 94.5% | viability, T/C [7] 114% | viability, T/C [8] 87.1% | viability, T/C [9] 81.8% | viability, T/C [10] 96% | viability, T/C [11] 88.5% | viability, T/C [12] 92.3% | viability, T/C [13] 103% | viability, T/C [14] 98.5% | viability, T/C [15] 82.6% | viability, T/C [16] 78.8% | viability, T/C [17] 93.6% | viability, T/C [18] 106% | viability, T/C [19] 112% | viability, T/C [20] 93.2% | viability, T/C [21] 91% | viability, T/C [22] 84.1% | viability, T/C [23] 89.7% | viability, T/C [24] 106% | viability, T/C [25] 93.5% | viability, T/C [26] 80.9% | viability, T/C [27] 85.6% | viability, T/C [28] 77.2% | viability, T/C [29] 89.9% | viability, T/C [30] 85.9% | viability, T/C [31] 77.7% | viability, T/C [32] 89.4% | viability, T/C [33] 82.2% | viability, T/C [34] 72.8% | viability, T/C [35] 71.9% | viability, T/C [36] 82.1%
> 1000 nM: IC50 (second compound 0.0316 µM) | IC50 (second compound 0.1 µM) | IC50 (second compound 0.316 µM) | IC50 (second compound 1 µM) | IC50 (second compound 3.16 µM) | IC50 (second compound 10 µM)

CC(Cn1ccc(-c2ccc(C#N)c(Cl)c2)n1)NC(=O)c1cc(C(C)O)[nH]n1 (stereo unspecified) + COc1c(OCCCN2CCOCC2)ccc2c3n(c(=NC(=O)c4cnc(N)nc4)nc12)CCN3
< 31.6 nM: IC50 (second compound 0.1 µM) | IC50 (second compound 0.316 µM) | IC50 (second compound 1 µM)
inactive: viability, T/C (second compound 0.00316 µM, first compound 0.0316 µM) 89% | viability, T/C (second compound 0.00316 µM, first compound 0.1 µM) 96% | viability, T/C (second compound 0.00316 µM, first compound 0.316 µM) 96.1% | viability, T/C (second compound 0.00316 µM, first compound 1 µM) 88% | viability, T/C (second compound 0.00316 µM, first compound 3.16 µM) 104% | viability, T/C (second compound 0.00316 µM, first compound 10 µM) 75.3% | viability, T/C (second compound 0.01 µM, first compound 0.0316 µM) 103% | viability, T/C (second compound 0.01 µM, first compound 0.1 µM) 83.3% | viability, T/C (second compound 0.01 µM, first compound 0.316 µM) 101% | viability, T/C (second compound 0.01 µM, first compound 1 µM) 93.5% | viability, T/C (second compound 0.01 µM, first compound 3.16 µM) 95.4% | viability, T/C (second compound 0.01 µM, first compound 10 µM) 59.5% | viability, T/C [3] 69.2% | viability, T/C [4] 77.4% | viability, T/C [5] 74.7% | viability, T/C [6] 82.1% | viability, T/C (second compound 0.0316 µM, first compound 3.16 µM) 79% | viability, T/C (second compound 0.0316 µM, first compound 10 µM) 45.7% | viability, T/C [9] 38.9% | viability, T/C [10] 39.2% | viability, T/C [11] 41.5% | viability, T/C [12] 45.7% | viability, T/C (second compound 0.1 µM, first compound 3.16 µM) 40.7% | viability, T/C (second compound 0.1 µM, first compound 10 µM) 33.9% | viability, T/C [15] 14.8% | viability, T/C [16] 15.9% | viability, T/C [17] 15.3% | viability, T/C [18] 14.4% | viability, T/C (second compound 0.316 µM, first compound 3.16 µM) 18.7% | viability, T/C (second compound 0.316 µM, first compound 10 µM) 20.4%
8440 nM: IC50 (second compound 0.0316 µM)
> 10000 nM: IC50 (second compound 0.00316 µM) | IC50 (second compound 0.01 µM)
active: viability, T/C [21] 8.77% | viability, T/C [22] 8.22% | viability, T/C [23] 7.63% | viability, T/C [24] 5.85% | viability, T/C (second compound 1 µM, first compound 3.16 µM) 7.24% | viability, T/C (second compound 1 µM, first compound 10 µM) 3.67%
